Reference: paper PMC11620517, “Novel hydrazone compounds with broad-spectrum antiplasmodial activity and synergistic interactions with antimalarial drugs” (Antimicrobial Agents and Chemotherapy, 2024)
Read-outs that look alike come from different tables or passages of the source.

Tests used:
[1] = test system: recombinant P. berghei GST; assay: GST inhibition assay (CDNB); type: biochemical, Plasmodium berghei; details: 6-point 1–50 µM
Procedure: Enzymatic activities of recombinant GSTs were determined spectrophotometrically using the chromogenic substrate 1-chloro-2,4-dinitrobenzene (CDNB). Recombinant GST (0.35 mg/mL) was mixed with 1 mM CDNB in 100 mM HEPES. Stock solutions (10 mM) of the CB compounds and hemin were prepared in 100% dimethyl sulfoxide (DMSO) and then diluted at 0.5% DMSO ([14]). Each inhibitor has six concentrations ranging from 1 to 50 µM. The reaction was initiated with 1 mM glutathione (GSH) after 15 minutes. Absorbance change at 340 nm was measured for 1 hour. The slope was converted to micromole per minute using Beer’s equation and the extinction coefficient for the product S-(2,4-dinitrophenyl)glutathione (ε340 nm = 9.6 mM^–1 cm^–1) ([14]). The assay was validated using human placenta GST (#G8642) as a positive control.

[2] = test system: P. falciparum C2B; assay: Malaria SYBR Green I-Based Fluorescence (MSF) assay, blood stages; type: cell-based; details: Plasmodium falciparum, 72 h, read-out: IC50 (µM) (±SD) for strain: C2B
Procedure: (§1) MSF assays were performed in vitro with four P. falciparum strains: D6 (drug sensitive), TM91-C235 (multidrug resistant), W2 (CQ resistant), and C2B (multidrug resistant against ATQ). Parasite strains were kept continuously in long-term cultures as described ([22]). Pre-dosed 384-well plates containing […] serial dilutions of CB compounds (0.0098–20 µM) were prepared using the Tecan Freedom Evo liquid handling system (Tecan USA, Inc., Durham, NC, USA) and were stored at 4°C. A CQ control plate (2,000 ng/mL) was included in each run. Based on modifications of previous methods ([17], [55]), late-ring or early-trophozoite stages were cultured in pre-dosed plates with 0.3% parasitemia and 2% hematocrit. Cultures were incubated for 72 hours at 37°C in a controlled atmosphere of 5% CO2, 5% O2, and 90% N2. Lysis buffer, consisting of 20 mM Tris HCl, 5 mM EDTA, 1.6% Triton X, 0.016% saponin, and SYBR Green I dye at a 20X concentration (Invitrogen #S-7567), was added to the plates for a final 10X SYBR Green concentration. Plates containing cell culture media and lysis buffer were incubated in the dark at 25°C for 24 hours, and the relative fluorescence units (RFU) were measured using the Tecan Genios Plus (Tecan USA, Inc.).

[3] = test system: P. falciparum D6; assay: as above; type: cell-based; details: Plasmodium falciparum, read-out: IC50 (µM) (±SD) for strain: D6
Procedure: as §1

[4] = test system: P. falciparum TM91c235; assay: as above; type: cell-based; details: Plasmodium falciparum, read-out: IC50 (µM) (±SD) for strain: TM91c235
Procedure: as §1

[5] = test system: P. falciparum W2; assay: as above; type: cell-based; details: Plasmodium falciparum, read-out: IC50 (µM) (±SD) for strain: W2
Procedure: as §1

[6] = test system: primary primate hepatocytes; assay: hepatocyte toxicity in the P. cynomolgi liver-stage assay; type: cell-based
Procedure: Primary primate hepatocytes were seeded in 384-well plates and used within 2–4 days ([56]). P. cynomolgi B strain parasites were inoculated and developed into hypnozoites and schizonts. CB compounds were tested in 8-point, threefold serial dilutions (100 µM to […]) for both prophylactic (4 days starting with sporozoite addition) and radical cure (4 days starting day 4 post-inoculation) modalities ([56][–][60]). The Operetta CLS imaging system and Harmony Software 4.9 (Perkin Elmer, Waltham, MA, USA) analyzed the plates, and the percentage of inhibition (PI) was calculated in Python using equation (1), where parasitic quantities (hypnozoite and schizont counts) were normalized to the negative control ([57]). Each plate included negative (DMSO) and positive (KDU691, maduramicin, tafenoquine) controls ([58]). IC50 values were determined using an 8-point, threefold dilution format and a Python-adapted grid algorithm for fitting PI to a four-parameter logistic function ([61]).

[7] = test system: P. berghei ookinete development (Ookluc parasites); assay: P. berghei ookinete luciferase inhibition assay; type: cell-based, Plasmodium berghei; details: for IC50: read-out: IC50 (ookinete development)
Procedure: Mice were pretreated with phenylhydrazine [6 mg/mL, intraperitoneal injection (IP)] 3 days before intravenous injection (IV) infection with P. berghei Ookluc parasites ([19], [62]). Once parasitemia exceeded 15%, the mice received PYR (1 mg/mL, IP) ([19], [62]). Twenty-four hours after PYR treatment, infected mice were assessed for at least 10 exflagellations before blood was collected by heart puncture ([19], [62]). Infected blood (1:20 dilution) was incubated with 8-point serial dilutions (2.5–75 µM) of CB compounds for 24 hours at 19°C with gentle shaking ([62], [64]). Relative luminescence units (RLU) of mature ookinetes were measured using the Promega Nano-Glo Luciferase Assay System Kit and a SpectraMax M3 Microplate Reader (Molecular Devices, San Jose, CA, USA) after 3 minutes. Giemsa blood smears confirmed ookinetes.

[8] = D6, blood stages, 72 hours, drug-sensitive strain
[9] = blood stages, 72 hours, multidrug resistant strain
[10] = W2, blood stages, 72 hours, CQ resistant strain
[11] = Plasmodium berghei, 24 h, 24 hours at 19°C, luminescence

| SMILES | GST inhibition [1] | IC50 [2] [µM] | IC50 [3, 8] [µM] | IC50 [4, 9] [µM] | IC50 [5, 10] [µM] | Toxicity [6] [µM] | activity in ookinete formation ([7]; dose–response 2.5–75 µM) | IC50 ([3]; D6, 72 h) [µM] | IC50 ([4]; 72 h) [µM] | IC50 ([5]; W2, 72 h) [µM] | IC50 ([7]; Plasmodium berghei, 24 h) [nM] | IC50 [7, 11] [nM] | IC50 ([7]; 24 hours at 19°C, luminescence) [nM] |
| --- | --- | --- | --- | --- | --- | --- | --- | --- | --- | --- | --- | --- | --- |
| O=C(N/N=C/c1cc(Br)ccc1O)/C(=C/C=C/c1ccccc1)NC(=O)c1ccccc1 [CB-50] | did not inhibit | 1.89 | 1.14 | 1.84 | 1.15 | >10 | no activity | – | – | – | – | – | – |
| O=C(N/N=C/c1c(O)ccc2ccccc12)c1cc([N+](=O)[O-])cc([N+](=O)[O-])c1 [CB-61] | did not inhibit | 0.3 | – | – | – | >10 | – | 0.2 | 0.26 | 0.22 | 29500 | – | – |
| O=C(NN=Cc1ccccc1O)c1cc(-c2ccccc2)nc2ccccc12 [CB-53] | did not inhibit | > 20 | > 20 | 13.9 | > 20 | >10 | – | – | – | – | – | 14700 | – |
| COc1cccc(/C=N/NC(=O)c2cc(-c3ccccc3)nc3ccccc23)c1O [CB-58] | did not inhibit | 8.83 | 8.44 | 10.6 | 5.63 | >10 | – | – | – | – | – | 32500 | – |
| COc1cccc(/C=N/NC(=O)c2nc(-c3ccccc3)cc(-c3ccccc3)n2)c1O [CB-41] | did not inhibit | 2.73 | 2.26 | 2.26 | 2.71 | >10 | – | – | – | – | – | 16600 | 8400 |
